Measurements published in ChEMBL document CHEMBL5052841, “Usp19 inhibitors for use in therapy” (2020).
Activity calls are given as the source filed them. The calls are words filed in the database; no cut-off is given here.

Experiments:
[1] = Toxicity in high-fat diet-induced obesity model of male C57BL/6J mouse assessed as decrease in body water content at 0.1 mg/kg, sc administered twice daily; type: organism-based; parameters: scale not given: the % may be the effect or the level left; details: in vivo
[2] = Toxicity in high-fat diet-induced obesity model of male C57BL/6J mouse assessed as decrease in total protein content at 0.1 mg/kg, sc administered twice daily; type: organism-based; parameters: scale not given: the % may be the effect or the level left; details: in vivo
[3] = Toxicity in high-fat diet-induced obesity model of male C57BL/6J mouse assessed as decrease in total ash content at 0.1 mg/kg, sc administered twice daily; type: organism-based; parameters: scale not given: the % may be the effect or the level left; details: in vivo
[4] = Toxicity in high-fat diet-induced obesity model of male C57BL/6J mouse assessed as reduction in body fat at 0.1 mg/kg, sc administered twice daily; type: organism-based; parameters: scale not given: the % may be the effect or the level left; details: in vivo
[5] = Toxicity in high-fat diet-induced obesity model of male C57BL/6J mouse assessed as decrease in total body weight at 0.1 mg/kg, sc administered twice daily; type: organism-based; parameters: scale not given: the % may be the effect or the level left; details: in vivo
Mus musculus [6] = test: Anti-diabetic activity in high-fat diet-induced obesity model of male C57BL/6J mouse assessed as decrease in plasma insulin at 25 mg/kg, ip administered twice daily; type: functional, organism-based
Mus musculus [7] = test: Antiobesity activity in high-fat diet-induced obesity model of male C57BL/6J mouse assessed as reduction in fat mass at 5 to 25 mg/kg, ip administered twice daily; type: functional; parameters: scale not given: the % may be the effect or the level left; details: dose 5-25 mg/kg
[8] = target: T1, Ubiquitin carboxyl-terminal hydrolase 19 (Homo sapiens, UniProt O94966); test: Inhibition of C-terminal His6-tagged recombinant human USP19 using iso-peptide ubiquitin-Lys-TAMRA as substrate incubated for 30 mins and measured after 90 mins by fluorescent polarization assay
T1 sequence (O94966 whole entry): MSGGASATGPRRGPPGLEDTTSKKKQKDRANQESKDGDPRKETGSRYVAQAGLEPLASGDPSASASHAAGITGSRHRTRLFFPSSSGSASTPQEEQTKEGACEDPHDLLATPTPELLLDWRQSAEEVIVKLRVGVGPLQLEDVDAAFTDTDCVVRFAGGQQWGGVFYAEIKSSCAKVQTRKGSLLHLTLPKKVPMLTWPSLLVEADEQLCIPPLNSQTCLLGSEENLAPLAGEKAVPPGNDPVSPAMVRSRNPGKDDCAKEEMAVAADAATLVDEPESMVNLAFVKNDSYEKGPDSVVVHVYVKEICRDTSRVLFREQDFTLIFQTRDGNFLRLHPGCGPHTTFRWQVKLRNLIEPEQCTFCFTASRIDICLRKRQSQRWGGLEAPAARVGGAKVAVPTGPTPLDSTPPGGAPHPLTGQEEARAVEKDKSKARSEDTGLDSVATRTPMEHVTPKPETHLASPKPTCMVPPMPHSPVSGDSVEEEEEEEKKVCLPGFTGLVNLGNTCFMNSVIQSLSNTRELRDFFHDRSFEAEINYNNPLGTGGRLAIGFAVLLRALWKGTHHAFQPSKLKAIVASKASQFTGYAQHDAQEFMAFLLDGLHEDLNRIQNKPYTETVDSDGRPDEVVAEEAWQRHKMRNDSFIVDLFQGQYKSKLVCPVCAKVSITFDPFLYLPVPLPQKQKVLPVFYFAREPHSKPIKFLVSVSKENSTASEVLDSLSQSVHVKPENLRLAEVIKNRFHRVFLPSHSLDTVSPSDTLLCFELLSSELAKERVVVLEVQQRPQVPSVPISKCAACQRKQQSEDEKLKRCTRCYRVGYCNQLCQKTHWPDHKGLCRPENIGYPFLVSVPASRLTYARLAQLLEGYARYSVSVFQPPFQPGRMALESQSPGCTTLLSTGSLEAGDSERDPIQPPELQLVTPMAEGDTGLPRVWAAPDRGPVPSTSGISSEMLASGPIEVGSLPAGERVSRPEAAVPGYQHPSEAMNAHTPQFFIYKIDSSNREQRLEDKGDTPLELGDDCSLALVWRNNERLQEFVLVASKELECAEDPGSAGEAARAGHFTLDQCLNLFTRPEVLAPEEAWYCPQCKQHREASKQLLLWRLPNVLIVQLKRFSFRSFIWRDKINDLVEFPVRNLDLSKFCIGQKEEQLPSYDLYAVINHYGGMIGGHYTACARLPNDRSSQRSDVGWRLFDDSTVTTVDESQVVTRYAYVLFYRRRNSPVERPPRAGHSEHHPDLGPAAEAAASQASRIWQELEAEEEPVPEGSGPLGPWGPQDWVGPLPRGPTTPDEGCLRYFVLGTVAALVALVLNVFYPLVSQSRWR

[9] = Toxicity in high-fat diet-induced obesity model of male C57BL/6J mouse assessed as effect on body water content at 5 mg/kg, ip administered twice daily; type: organism-based; details: in vivo
[10] = Toxicity in high-fat diet-induced obesity model of male C57BL/6J mouse assessed as increase in body water content at 25 mg/kg, ip administered twice daily; type: organism-based; details: in vivo
[11] = Toxicity in high-fat diet-induced obesity model of male C57BL/6J mouse assessed as decrease in total body weight at 25 mg/kg, ip administered twice daily; type: organism-based; parameters: scale not given: the % may be the effect or the level left; details: in vivo
[12] = Toxicity in high-fat diet-induced obesity model of male C57BL/6J mouse assessed as effect on total protein content at 5 mg/kg, ip administered twice daily; type: organism-based; details: in vivo
Mus musculus [13] = test: Antiobesity activity in high-fat diet-induced obesity model of male C57BL/6J mouse assessed as decrease in body weight gain at 5 to 25 mg/kg, ip administered twice daily; type: functional, organism-based; details: dose 5-25 mg/kg
[14] = Toxicity in high-fat diet-induced obesity model of male C57BL/6J mouse assessed as reduction in body fat at 25 mg/kg, ip administered twice daily; type: organism-based; parameters: scale not given: the % may be the effect or the level left; details: in vivo
Mus musculus [15] = test: Protection against sciatic nerve denervation-induced muscular atrophy in male C57BL/6 mouse assessed as decrease in muscle wasting in gastrocnemius muscle at 75 mg/kg, ip administered twice daily; type: functional, organism-based
Mus musculus [16] = test: Anti-diabetic activity in high-fat diet-induced obesity model of male C57BL/6J mouse assessed as decrease in plasma glucose at 25 mg/kg, ip administered twice daily; type: functional, organism-based
[17] = target: T1, Ubiquitin carboxyl-terminal hydrolase 19; test: Inhibition of USP19 (unknown origin) in neuroblastoma cell measured by cell target engagement assay; type: cell-based
Mus musculus [18] = test: Antiobesity activity in high-fat diet-induced obesity model of male C57BL/6J mouse assessed as reduction in lean mass at 5 to 25 mg/kg, ip administered twice daily; type: functional; parameters: scale not given: the % may be the effect or the level left; details: dose 5-25 mg/kg
Mus musculus [19] = test: Antiobesity activity in high-fat diet-induced obesity model of male C57BL/6J mouse assessed as reduction in epididymal fat mass at 5 to 25 mg/kg, ip administered twice daily; type: functional, organism-based; details: dose 5-25 mg/kg
[20] = Inhibition of USP19 in mouse skeletal muscle cell measured by cell target engagement assay; type: cell-based
Mus musculus [21] = test: Antiobesity activity in high-fat diet-induced obesity model of male C57BL/6J mouse assessed as increase in liver mass at 5 to 25 mg/kg, ip administered twice daily; type: functional, organism-based; details: dose 5-25 mg/kg
[22] = Toxicity in high-fat diet-induced obesity model of male C57BL/6J mouse assessed as decrease in total protein content at 25 mg/kg, ip administered twice daily; type: organism-based; parameters: scale not given: the % may be the effect or the level left; details: in vivo
[23] = Toxicity in high-fat diet-induced obesity model of male C57BL/6J mouse assessed as decrease in total ash content at 25 mg/kg, ip administered twice daily; type: organism-based; parameters: scale not given: the % may be the effect or the level left; details: in vivo
Mus musculus [24] = test: Protection against sciatic nerve denervation-induced muscular atrophy in male C57BL/6 mouse assessed as lower loss of tibialis anterior muscle at 75 mg/kg, ip administered twice daily; type: functional, organism-based
[25] = target: T1, Ubiquitin carboxyl-terminal hydrolase 19; test: Inhibition of USP19 (unknown origin) in breast cancer cell measured by cell target engagement assay; parameters: species or system Breast cancer cell line

## CCCCCCCCCCCCCCCC(=O)N[C@@H](CCC(=O)NCCCC[C@H](NC(=O)[C@H](C)NC(=O)[C@H](C)NC(=O)[C@H](CCC(N)=O)NC(=O)CNC(=O)[C@H](CCC(=O)O)NC(=O)[C@H](CC(C)C)NC(=O)[C@H](Cc1ccc(O)cc1)NC(=O)[C@H](CO)NC(=O)[C@H](CO)NC(=O)[C@@H](NC(=O)[C@H](CC(=O)O)NC(=O)[C@H](CO)NC(=O)[C@@H](NC(=O)[C@H](Cc1ccccc1)NC(=O)[C@@H](NC(=O)CNC(=O)[C@H](CCC(=O)O)NC(=O)[C@H](C)NC(=O)[C@@H](N)Cc1cnc[nH]1)[C@@H](C)O)[C@@H](C)O)C(C)C)C(=O)N[C@@H](CCC(=O)O)C(=O)N[C@@H](Cc1ccccc1)C(=O)N[C@H](C(=O)N[C@@H](C)C(=O)N[C@@H](Cc1c[nH]c2ccccc12)C(=O)N[C@@H](CC(C)C)C(=O)N[C@H](C(=O)N[C@@H](CCCNC(=N)N)C(=O)NCC(=O)N[C@@H](CCCNC(=N)N)C(=O)NCC(=O)O)C(C)C)[C@@H](C)CC)C(=O)O [LIRAGLUTIDE]
[1]
  Activity: -8.6%
[2]
  Activity: -7.9%
[3]
  Activity: -11.6%
[4]
  Activity: 17.4%
[5]
  Activity: 13%

## C[C@H](CC1CCCCC1)C(=O)N1CC[C@@](O)(Cn2cc(C(=O)N3CCNCC3)c(-c3ccccc3)cc2=O)C2(CCCC2)C1
Mus musculus [6]
  Activity: Active
Mus musculus [7]
  Activity: 24%
[8]
  IC50: < 500 nM
[9]
  Activity: Non-Toxic
[10]
  Activity: 11.4%
[11]
  Activity: 13%
[12]
  Activity: Non-Toxic
Mus musculus [13]
  Activity: Active
[14]
  Activity: 24.9%
Mus musculus [15]
  Activity: Active
Mus musculus [16]
  Activity: Active
[17]
  EC50: 32.8 nM
Mus musculus [18]
  Activity: -3%
Mus musculus [19]
  Activity: Active
[20]
  EC50: 13.5 nM
Mus musculus [21]
  Activity: Active
[22]
  Activity: -7.2%
[23]
  Activity: -9.6%
Mus musculus [24]
  Activity: Active
[25]
  EC50: 9.9 nM
